Results taken from publication PMC11062899, “De novo development of small cyclic peptides that are orally bioavailable” (Nature Chemical Biology, 2023).
Where “and” joins values, the source holds several entries; their conditions need not be identical. Equal entries are not always repeated. Values belong to the compound of their own block, whether it stands above or below them.

Tests used:
[1] = test system: porcine pancreatin; experiment: Peptide stability in simulated intestinal fluid (SIF); format: in vitro ADME; conditions: after 8 h vs 0 h (TIC); for SIF stability, Residual peptide Average: average of R1-R3; for SIF stability, Residual peptide: single replicates R1-R3
In short: (§1)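 Peptide from a 1 mM DMSO stock was added to fluid pre-warmed at 37 °C. SGF was pH 1.2 NaCl with porcine pepsin (0.32 g per 100 ml), and SIF was pH 6.8 potassium phosphate with porcine pancreatin (1 g per 100 ml). Supernatant peptide was quantified by LC–MS, with residual expressed as T1/T0.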

[2] = as above; format: in vitro ADME, porcine; conditions: simulated gi fluid; 8 h, 37 °C, pH 6.8; read-out: Proteolytic stability: SIF (8 h) % remaining
In short: as §1

[3] = target: human α-thrombin (Homo sapiens, UniProt P00734); experiment: Protease inhibition, Ki for human α-thrombin (fluorogenic substrate Z-Gly-Gly-Arg-AMC); format: biochemical; conditions: replicates R1-R3
In short: (§2)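 Inhibition was measured as AMC fluorescence from 50 μM substrate, monitored for 30 min at 25 °C, relative to a peptide-free control. Human and rat enzymes were present at 2 nM and 3 nM final, respectively, in 50 mM Tris-HCl pH 7.4, 150 mM NaCl, 10 mM MgCl2, 1 mM CaCl2. Ki derives from fitted IC50 via Cheng–Prusoff.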

[4] = target: T1, porcine pepsin (Sus scrofa, UniProt P00791); experiment: Peptide stability in simulated gastric fluid (SGF); format: in vitro ADME; conditions: for SGF stability, Residual peptide Average / SGF stability, Residual peptide: after 8 h vs 0 h (TIC); for SGF stability, Residual peptide Average: average of R1-R3; for SGF stability, Residual peptide: single replicates R1-R3; for remaining at 8 h: simulated gi fluid, 37 °C, pH 1.2, read-out: Proteolytic stability: SGF (8 h) % remaining
T1 construct: 0.32 g of porcine pepsin (Sigma-Aldrich, P7125) was dissolved under gentle agitation; purchased Sigma-Aldrich P7125
In short: as §1

[5] = Passive artificial membrane permeability (PAMPA); conditions: for PAMPA permeability: % permeability: 50 μM, 12–18 h, acceptor concentration relative to equilibrium; for Papp at 50 μM / Permeability% Average / Permeability% R1 / Permeability% R3: PAMPA; for Papp at 50 μM: pH 7.4; for Permeability% Average: average of R1-R3; for Permeability% R1: replicate R1; for Permeability% R1 / Permeability% R3: TIC of top well sample relative to sample at theoretical equilibrium; for Permeability% R3: replicate R3
[6] = Metabolic stability in rat liver microsomes (RLMs); conditions: rat, microsomes
[7] = target: T2, rat α-thrombin (Rattus norvegicus, UniProt P18292); experiment: Protease inhibition, Ki for rat α-thrombin (fluorogenic substrate Z-Gly-Gly-Arg-AMC); format: biochemical; conditions: replicates R1-R3
T2 construct: rat α-thrombin (Molecular Innovations) were used at final concentrations of 2 nM and 3 nM; purchased Molecular Innovations
In short: as §2

[8] = peptide 1.33E+02 uM, slope of proteolytic substrate cleavage over time
[9] = CL (ul/min/mg protein) R1, RLM CL, replicate R1
[10] = CL (ul/min/mg protein) R2, RLM CL, replicate R2
[11] = CL (ul/min/mg protein) R3, RLM CL, replicate R3
[12] = Half Life (min) R1, RLM metabolic stability, replicate R1, 0-60 min
[13] = Half Life (min) R2, RLM metabolic stability, replicate R2, 0-60 min
[14] = Half Life (min) R3, RLM metabolic stability, replicate R3, 0-60 min
[15] = Metabolic stability: Half life T1/2 (min), RLMs, mean and SD, three measurements
[16] = Metabolic stability: RLM CL (ul/min/mg), RLMs, mean and SD, three measurements

T1 sequence (P00791 60-385): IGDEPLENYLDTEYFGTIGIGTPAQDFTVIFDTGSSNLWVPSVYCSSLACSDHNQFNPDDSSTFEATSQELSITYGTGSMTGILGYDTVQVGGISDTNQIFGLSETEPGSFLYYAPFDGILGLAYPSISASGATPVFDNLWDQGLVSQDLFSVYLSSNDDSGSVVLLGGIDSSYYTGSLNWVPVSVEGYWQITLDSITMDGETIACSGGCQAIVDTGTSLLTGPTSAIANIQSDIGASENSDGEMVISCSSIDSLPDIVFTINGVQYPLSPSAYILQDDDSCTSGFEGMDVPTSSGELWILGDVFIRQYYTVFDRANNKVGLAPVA

- SIF stability, Residual peptide Average [1]: 94.64
- SIF stability, Residual peptide [1]: 97.98 and 88.07 and 97.88
- remaining at 8 h [2]: 95 ± 6%
- Human alpha thrombin inhibition, slope normalized to DMSO ([3]; peptide 1.02E-03 uM): 95.9 and 98.2 and 97.4
- Human alpha thrombin inhibition, slope normalized to DMSO ([3]; peptide 1.04E+00 uM): 81.9 and 85.8 and 83.3
- Human alpha thrombin inhibition, slope normalized to DMSO ([3]; peptide 1.27E-04 uM): 100.0
- Human alpha thrombin inhibition, slope normalized to DMSO ([3]; peptide 1.30E-01 uM): 95.8 and 97.8
- Human alpha thrombin inhibition, slope normalized to DMSO [3, 8]: 5.8 and 7.8 and 9.3
- Human alpha thrombin inhibition, slope normalized to DMSO ([3]; peptide 1.63E-02 uM): 98.1 and 95.1
- Human alpha thrombin inhibition, slope normalized to DMSO ([3]; peptide 1.67E+01 uM): 24.2 and 34.4 and 34.5
- Human alpha thrombin inhibition, slope normalized to DMSO ([3]; peptide 2.03E-03 uM): 107.0
- Human alpha thrombin inhibition, slope normalized to DMSO ([3]; peptide 2.08E+00 uM): 75.9 and 67.7 and 77.5
- Human alpha thrombin inhibition, slope normalized to DMSO ([3]; peptide 2.54E-04 uM): 106.8 and 94.5 and 91.2
- Human alpha thrombin inhibition, slope normalized to DMSO ([3]; peptide 2.60E-01 uM): 93.5 and 89.6 and 97.8
- Human alpha thrombin inhibition, slope normalized to DMSO ([3]; peptide 3.18E-05 uM): 101.5 and 97.9 and 106.2
- Human alpha thrombin inhibition, slope normalized to DMSO ([3]; peptide 3.26E-02 uM): 103.3 and 97.7 and 104.2
- Human alpha thrombin inhibition, slope normalized to DMSO ([3]; peptide 3.33E+01 uM): 16.8 and 22.5 and 20.8
- Human alpha thrombin inhibition, slope normalized to DMSO ([3]; peptide 4.07E-03 uM): 97.2 and 91.1
- Human alpha thrombin inhibition, slope normalized to DMSO ([3]; peptide 4.17E+00 uM): 54.3 and 66.2 and 66.1
- Human alpha thrombin inhibition, slope normalized to DMSO ([3]; peptide 5.09E-04 uM): 94.9 and 97.9
- Human alpha thrombin inhibition, slope normalized to DMSO ([3]; peptide 5.21E-01 uM): 90.1 and 82.7 and 89.7
- Human alpha thrombin inhibition, slope normalized to DMSO ([3]; peptide 6.36E-05 uM): 101.8 and 98.6 and 104.2
- Human alpha thrombin inhibition, slope normalized to DMSO ([3]; peptide 6.51E-02 uM): 97.4 and 97.6
- Human alpha thrombin inhibition, slope normalized to DMSO ([3]; peptide 6.67E+01 uM): 12.2 and 13.3 and 13.7
- Human alpha thrombin inhibition, slope normalized to DMSO ([3]; peptide 8.14E-03 uM): 97.0 and 98.1 and 103.6
- Human alpha thrombin inhibition, slope normalized to DMSO ([3]; peptide 8.33E+00 uM): 51.4 and 50.3 and 44.5
- SGF stability, Residual peptide Average [4]: 99.25
- SGF stability, Residual peptide [4]: 102.40 and 99.33 and 96.01
- remaining at 8 h [4]: 99 ± 3%
- PAMPA permeability: % permeability [5]: 2.0 ± 1.7%
- Papp at 50 μM [5]: 0.049 ×10⁻⁶ cm/s
- Permeability% Average [5]: 2.0%
- Permeability% R1 [5]: 0.0459%
- Permeability% R3 [5]: 3.39%
- microsomal CLint [6, 9]: 75.7 µL/min/mg
- microsomal CLint [6, 10]: 76.9 µL/min/mg
- microsomal CLint [6, 11]: 68.3 µL/min/mg
- half-life [6, 12]: 18.3 min
- half-life [6, 13]: 18 min
- half-life [6, 14]: 20.3 min
- half-life [6, 15]: 18.9 ± 1 min
- microsomal CLint [6, 16]: 74 ± 4 µL/min/mg
- Rat alpha thrombin inhibition, slope normalized to DMSO [7, 8]: 3.2 and 2.1 and 2.4
- Rat alpha thrombin inhibition, slope normalized to DMSO ([7]; peptide 1.67E+01 uM): 12.6 and 11.9 and 11.7
- Rat alpha thrombin inhibition, slope normalized to DMSO ([7]; peptide 2.08E+00 uM): 49.1 and 48.5 and 49.4
- Rat alpha thrombin inhibition, slope normalized to DMSO ([7]; peptide 3.33E+01 uM): 7.2 and 6.5 and 6.2
- Rat alpha thrombin inhibition, slope normalized to DMSO ([7]; peptide 4.17E+00 uM): 33.5 and 33.2 and 33.1
- Rat alpha thrombin inhibition, slope normalized to DMSO ([7]; peptide 6.67E+01 uM): 4.2 and 3.4 and 3.2
- Rat alpha thrombin inhibition, slope normalized to DMSO ([7]; peptide 8.33E+00 uM): 18.9 and 18.7 and 17.7
Compound: O=C1CCSCc2cccc(n2)CSCCNC(=O)C2CN(C(=O)c3ccc(Cl)s3)CCN2C(=O)[C@H](CO)N1 (some centres unmarked) [compound 24]

- SIF stability, Residual peptide Average [1]: 93.12
- SIF stability, Residual peptide [1]: 102.84 and 84.15 and 92.36
- remaining at 8 h [2]: 93 ± 9%
- Human alpha thrombin inhibition, slope normalized to DMSO ([3]; peptide 1.02E-03 uM): 94.7 and 95.3 and 98.5
- Human alpha thrombin inhibition, slope normalized to DMSO ([3]; peptide 1.04E+00 uM): 75.5 and 74.4 and 76.2
- Human alpha thrombin inhibition, slope normalized to DMSO ([3]; peptide 1.27E-04 uM): 97.4 and 68.3 and 98.0
- Human alpha thrombin inhibition, slope normalized to DMSO ([3]; peptide 1.30E-01 uM): 93.0 and 91.1 and 92.8
- Human alpha thrombin inhibition, slope normalized to DMSO [3, 8]: 13.5 and 15.1 and 12.6
- Human alpha thrombin inhibition, slope normalized to DMSO ([3]; peptide 1.63E-02 uM): 97.4 and 90.6 and 97.7
- Human alpha thrombin inhibition, slope normalized to DMSO ([3]; peptide 1.67E+01 uM): 26.1 and 29.0 and 29.2
- Human alpha thrombin inhibition, slope normalized to DMSO ([3]; peptide 2.03E-03 uM): 98.6 and 102.5 and 100.6
- Human alpha thrombin inhibition, slope normalized to DMSO ([3]; peptide 2.08E+00 uM): 73.0 and 60.5 and 66.8
- Human alpha thrombin inhibition, slope normalized to DMSO ([3]; peptide 2.54E-04 uM): 97.8 and 93.6 and 92.8
- Human alpha thrombin inhibition, slope normalized to DMSO ([3]; peptide 2.60E-01 uM): 88.6 and 90.7 and 89.6
- Human alpha thrombin inhibition, slope normalized to DMSO ([3]; peptide 3.18E-05 uM): 97.1 and 94.4 and 99.6
- Human alpha thrombin inhibition, slope normalized to DMSO ([3]; peptide 3.26E-02 uM): 101.4 and 92.5 and 97.5
- Human alpha thrombin inhibition, slope normalized to DMSO ([3]; peptide 3.33E+01 uM): 14.8 and 16.8 and 15.8
- Human alpha thrombin inhibition, slope normalized to DMSO ([3]; peptide 4.07E-03 uM): 99.3 and 94.9 and 93.4
- Human alpha thrombin inhibition, slope normalized to DMSO ([3]; peptide 4.17E+00 uM): 57.1 (2×) and 55.7
- Human alpha thrombin inhibition, slope normalized to DMSO ([3]; peptide 5.09E-04 uM): 99.4 and 94.7 and 120.6
- Human alpha thrombin inhibition, slope normalized to DMSO ([3]; peptide 5.21E-01 uM): 84.0 and 81.7 and 83.0
- Human alpha thrombin inhibition, slope normalized to DMSO ([3]; peptide 6.36E-05 uM): 93.6 and 95.3 and 99.3
- Human alpha thrombin inhibition, slope normalized to DMSO ([3]; peptide 6.51E-02 uM): 95.9 and 74.7 and 94.1
- Human alpha thrombin inhibition, slope normalized to DMSO ([3]; peptide 6.67E+01 uM): 13.4 and 15.6 and 21.8
- Human alpha thrombin inhibition, slope normalized to DMSO ([3]; peptide 8.14E-03 uM): 96.7 and 95.4 and 97.4
- Human alpha thrombin inhibition, slope normalized to DMSO ([3]; peptide 8.33E+00 uM): 44.0 and 41.9 and 43.6
- SGF stability, Residual peptide Average [4]: 101.05
- SGF stability, Residual peptide [4]: 110.75 and 95.01 and 97.38
- remaining at 8 h [4]: 101 ± 8%
- PAMPA permeability: % permeability [5]: 0.62 ± 0.14%
- Papp at 50 μM [5]: 0.0407 ×10⁻⁶ cm/s
- Permeability% Average [5]: 0.6%
- Permeability% R1 [5]: 0.77%
- Permeability% R3 [5]: 0.57%
- microsomal CLint [6, 9]: 99.1 µL/min/mg
- microsomal CLint [6, 10]: 76.5 µL/min/mg
- microsomal CLint [6, 11]: 112 µL/min/mg
- half-life [6, 12]: 14 min
- half-life [6, 13]: 18.1 min
- half-life [6, 14]: 12.4 min
- half-life [6, 15]: 14.8 ± 2.4 min
- microsomal CLint [6, 16]: 96 ± 15 µL/min/mg
- Rat alpha thrombin inhibition, slope normalized to DMSO [7, 8]: 3.8 and 4.8 and 16.3
- Rat alpha thrombin inhibition, slope normalized to DMSO ([7]; peptide 1.67E+01 uM): 8.5 and 7.5 and 19.4
- Rat alpha thrombin inhibition, slope normalized to DMSO ([7]; peptide 2.08E+00 uM): 35.4 and 36.0 and 40.9
- Rat alpha thrombin inhibition, slope normalized to DMSO ([7]; peptide 3.33E+01 uM): 4.1 and 4.6 and 17.1
- Rat alpha thrombin inhibition, slope normalized to DMSO ([7]; peptide 4.17E+00 uM): 23.4 and 23.3 and 26.8
- Rat alpha thrombin inhibition, slope normalized to DMSO ([7]; peptide 6.67E+01 uM): 3.8 and 4.6 and 15.5
- Rat alpha thrombin inhibition, slope normalized to DMSO ([7]; peptide 8.33E+00 uM): 13.7 and 14.0 and 21.8
Compound: O=C1NCCSCc2cccc(n2)CSC[C@H](NC(=O)c2ccc(Cl)s2)C(=O)N[C@@H](CO)C(=O)NCc2ccc1cc2 [compound 25]
